Assay results taken from patent US7118895B2, “Process for producing aglycon by using diglycosidase and flavor-improved food containing the aglycon and converting agent to be used in the process” (Amano Enzyme Inc., priority 2000, dated 2006).

System: Crude diglycosidase
Assay: Examination of substrate concentration in the conversion into isoflavone aglycons by diglycosidase using soybean materials;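 as to Decomposition efficiency: ratio of each glycoside/aglycon within its isoflavone family: percent of the isoflavone family total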
Assay type: biochemical, Penicillium multicolor IAM7153
Experimental: Into 20 mM acetate buffer of pH 4.0 was suspended 0.1 g, 0.25 g, 0.5 g, 1.0 g, or 1.5 g of each of various soybean materials (roasted soy flour (manufactured by Fuji Shokuryo K.K.), soymilk (manufactured by Gitoh Shokuhin K.K.), defatted soybean (manufactured by Fuji Seiyu K.K.), concentrated soybean protein (manufactured by Fuji Seiyu K.K.)). The pH of the suspension was measured and the liquid volume was adjusted to 4.5 mL while the pH was adjusted to 4.0 with 1N hydrochloric acid. An enzyme solution wherein diglycosidase activity of crude diglycosidase was adjusted to 1.88 AU/mL was added thereto in an amount of 0.5 mL, whereby the final liquid volume was 5.0 mL. Namely, the ratio of the soybean material in the reaction mixture was 2%, 5%, 10%, 20%, or 30% (w/v). The whole was reacted at 55° C. under shaking. To 5 mL of the reaction mixture was added 7 mL of ethanol after 0, 1, 3, and 6 hours of the reaction. After ultrasonication, the mixture was thoroughly mixed. It was subjected to centrifugal separation at 2,000 rpm and room temperature for 5 minutes. Then, […] of the supernatant was placed in a 1.5 mL microtube and was subjected to centrifugal separation at 15,000 rpm and 4° C. for 10 minutes. The supernatant was filtered through a filter and each sample was suitably diluted by a factor of 1 to 6 depending on the substrate concentration. Fifty μL of the diluted solution was analyzed by HLPC (Tables 27 to 38).

Structure (SMILES): COc1cc2c(=O)c(-c3ccc(O)cc3)coc2cc1O[C@@H]1O[C@H](COC(C)=O)[C@@H](O)[C@H](O)[C@H]1O [acetyl-glycitin]
- Decomposition efficiency: ratio of each glycoside/aglycon within its isoflavone family (soymilk, substrate concentration 2%, heat treatment of enzyme no, reaction time 0 h): not detected
- Decomposition efficiency: ratio of each glycoside/aglycon within its isoflavone family (soymilk, substrate concentration 2%, heat treatment of enzyme no, reaction time 1 h): not detected
- Decomposition efficiency: ratio of each glycoside/aglycon within its isoflavone family (soymilk, substrate concentration 2%, heat treatment of enzyme no, reaction time 3 h): not detected
- Decomposition efficiency: ratio of each glycoside/aglycon within its isoflavone family (soymilk, substrate concentration 2%, heat treatment of enzyme no, reaction time 6 h): not detected
- Decomposition efficiency: ratio of each glycoside/aglycon within its isoflavone family (soymilk, substrate concentration 2%, heat treatment of enzyme yes, reaction time 6 h): not detected
- Decomposition efficiency: ratio of each glycoside/aglycon within its isoflavone family (soymilk, substrate concentration 5%, heat treatment of enzyme no, reaction time 0 h): not detected
- Decomposition efficiency: ratio of each glycoside/aglycon within its isoflavone family (soymilk, substrate concentration 5%, heat treatment of enzyme no, reaction time 1 h): not detected
- Decomposition efficiency: ratio of each glycoside/aglycon within its isoflavone family (soymilk, substrate concentration 5%, heat treatment of enzyme no, reaction time 3 h): not detected
- Decomposition efficiency: ratio of each glycoside/aglycon within its isoflavone family (soymilk, substrate concentration 5%, heat treatment of enzyme no, reaction time 6 h): not detected
- Decomposition efficiency: ratio of each glycoside/aglycon within its isoflavone family (soymilk, substrate concentration 5%, heat treatment of enzyme yes, reaction time 6 h): not detected
- Decomposition efficiency: ratio of each glycoside/aglycon within its isoflavone family (soymilk, substrate concentration 10%, heat treatment of enzyme no, reaction time 0 h): not detected
- Decomposition efficiency: ratio of each glycoside/aglycon within its isoflavone family (soymilk, substrate concentration 10%, heat treatment of enzyme no, reaction time 1 h): not detected
- Decomposition efficiency: ratio of each glycoside/aglycon within its isoflavone family (soymilk, substrate concentration 10%, heat treatment of enzyme no, reaction time 3 h): not detected
- Decomposition efficiency: ratio of each glycoside/aglycon within its isoflavone family (soymilk, substrate concentration 10%, heat treatment of enzyme no, reaction time 6 h): not detected
- Decomposition efficiency: ratio of each glycoside/aglycon within its isoflavone family (soymilk, substrate concentration 10%, heat treatment of enzyme yes, reaction time 6 h): not detected
- Decomposition efficiency: ratio of each glycoside/aglycon within its isoflavone family (soymilk, substrate concentration 20%, heat treatment of enzyme no, reaction time 0 h): not detected
- Decomposition efficiency: ratio of each glycoside/aglycon within its isoflavone family (soymilk, substrate concentration 20%, heat treatment of enzyme no, reaction time 1 h): not detected
- Decomposition efficiency: ratio of each glycoside/aglycon within its isoflavone family (soymilk, substrate concentration 20%, heat treatment of enzyme no, reaction time 3 h): not detected
- Decomposition efficiency: ratio of each glycoside/aglycon within its isoflavone family (soymilk, substrate concentration 20%, heat treatment of enzyme no, reaction time 6 h): not detected
- Decomposition efficiency: ratio of each glycoside/aglycon within its isoflavone family (soymilk, substrate concentration 20%, heat treatment of enzyme yes, reaction time 6 h): not detected
- Decomposition efficiency: ratio of each glycoside/aglycon within its isoflavone family (soymilk, substrate concentration 30%, heat treatment of enzyme no, reaction time 0 h): not detected
- Decomposition efficiency: ratio of each glycoside/aglycon within its isoflavone family (soymilk, substrate concentration 30%, heat treatment of enzyme no, reaction time 1 h): not detected
- Decomposition efficiency: ratio of each glycoside/aglycon within its isoflavone family (soymilk, substrate concentration 30%, heat treatment of enzyme no, reaction time 3 h): not detected
- Decomposition efficiency: ratio of each glycoside/aglycon within its isoflavone family (soymilk, substrate concentration 30%, heat treatment of enzyme no, reaction time 6 h): not detected
- Decomposition efficiency: ratio of each glycoside/aglycon within its isoflavone family (soymilk, substrate concentration 30%, heat treatment of enzyme yes, reaction time 6 h): not detected

Structure (SMILES): O=c1c(-c2ccc(O)cc2)coc2cc(O[C@@H]3O[C@H](CO)[C@@H](O)[C@H](O)[C@H]3O)ccc12 [diadzin]
- Decomposition efficiency: ratio of each glycoside/aglycon within its isoflavone family (concentrated soybean protein, substrate concentration 2%, heat treatment of enzyme no, reaction time 0 h): 52.8%
- Decomposition efficiency: ratio of each glycoside/aglycon within its isoflavone family (concentrated soybean protein, substrate concentration 2%, heat treatment of enzyme no, reaction time 1 h): not detected
- Decomposition efficiency: ratio of each glycoside/aglycon within its isoflavone family (concentrated soybean protein, substrate concentration 2%, heat treatment of enzyme no, reaction time 3 h): not detected
- Decomposition efficiency: ratio of each glycoside/aglycon within its isoflavone family (concentrated soybean protein, substrate concentration 2%, heat treatment of enzyme no, reaction time 6 h): not detected
- Decomposition efficiency: ratio of each glycoside/aglycon within its isoflavone family (concentrated soybean protein, substrate concentration 2%, heat treatment of enzyme yes, reaction time 6 h): 52.6%
- Decomposition efficiency: ratio of each glycoside/aglycon within its isoflavone family (concentrated soybean protein, substrate concentration 5%, heat treatment of enzyme no, reaction time 0 h): 53.0%
- Decomposition efficiency: ratio of each glycoside/aglycon within its isoflavone family (concentrated soybean protein, substrate concentration 5%, heat treatment of enzyme no, reaction time 1 h): not detected
- Decomposition efficiency: ratio of each glycoside/aglycon within its isoflavone family (concentrated soybean protein, substrate concentration 5%, heat treatment of enzyme no, reaction time 3 h): not detected
- Decomposition efficiency: ratio of each glycoside/aglycon within its isoflavone family (concentrated soybean protein, substrate concentration 5%, heat treatment of enzyme no, reaction time 6 h): not detected
- Decomposition efficiency: ratio of each glycoside/aglycon within its isoflavone family (concentrated soybean protein, substrate concentration 5%, heat treatment of enzyme yes, reaction time 6 h): 53.5%
- Decomposition efficiency: ratio of each glycoside/aglycon within its isoflavone family (concentrated soybean protein, substrate concentration 10%, heat treatment of enzyme no, reaction time 0 h): 52.8%
- Decomposition efficiency: ratio of each glycoside/aglycon within its isoflavone family (concentrated soybean protein, substrate concentration 10%, heat treatment of enzyme no, reaction time 1 h): 2.2%
- Decomposition efficiency: ratio of each glycoside/aglycon within its isoflavone family (concentrated soybean protein, substrate concentration 10%, heat treatment of enzyme no, reaction time 3 h): not detected
- Decomposition efficiency: ratio of each glycoside/aglycon within its isoflavone family (concentrated soybean protein, substrate concentration 10%, heat treatment of enzyme no, reaction time 6 h): not detected
- Decomposition efficiency: ratio of each glycoside/aglycon within its isoflavone family (concentrated soybean protein, substrate concentration 10%, heat treatment of enzyme yes, reaction time 6 h): 53.3%
- Decomposition efficiency: ratio of each glycoside/aglycon within its isoflavone family (concentrated soybean protein, substrate concentration 20%, heat treatment of enzyme no, reaction time 0 h): 52.9%
- Decomposition efficiency: ratio of each glycoside/aglycon within its isoflavone family (concentrated soybean protein, substrate concentration 20%, heat treatment of enzyme no, reaction time 1 h): 0.7%
- Decomposition efficiency: ratio of each glycoside/aglycon within its isoflavone family (concentrated soybean protein, substrate concentration 20%, heat treatment of enzyme no, reaction time 3 h): not detected
- Decomposition efficiency: ratio of each glycoside/aglycon within its isoflavone family (concentrated soybean protein, substrate concentration 20%, heat treatment of enzyme no, reaction time 6 h): not detected
- Decomposition efficiency: ratio of each glycoside/aglycon within its isoflavone family (concentrated soybean protein, substrate concentration 20%, heat treatment of enzyme yes, reaction time 6 h): 52.8%
- Decomposition efficiency: ratio of each glycoside/aglycon within its isoflavone family (concentrated soybean protein, substrate concentration 30%, heat treatment of enzyme no, reaction time 0 h): 49.2%
- Decomposition efficiency: ratio of each glycoside/aglycon within its isoflavone family (concentrated soybean protein, substrate concentration 30%, heat treatment of enzyme no, reaction time 1 h): 2.7%
- Decomposition efficiency: ratio of each glycoside/aglycon within its isoflavone family (concentrated soybean protein, substrate concentration 30%, heat treatment of enzyme no, reaction time 3 h): not detected
- Decomposition efficiency: ratio of each glycoside/aglycon within its isoflavone family (concentrated soybean protein, substrate concentration 30%, heat treatment of enzyme no, reaction time 6 h): not detected
- Decomposition efficiency: ratio of each glycoside/aglycon within its isoflavone family (concentrated soybean protein, substrate concentration 30%, heat treatment of enzyme yes, reaction time 6 h): 49.8%

Structure (SMILES): O=c1c(-c2ccc(O)cc2)coc2cc(O[C@@H]3O[C@H](CO)[C@@H](O)[C@H](O)[C@H]3O)cc(O)c12 [genisitin]
- Decomposition efficiency of genistin family in defatted soybean (substrate concentration 2%, heat treatment of enzyme no, reaction time 0 h): 37.7
- Decomposition efficiency of genistin family in defatted soybean (substrate concentration 2%, heat treatment of enzyme no, reaction time 1 h): not detected
- Decomposition efficiency of genistin family in defatted soybean (substrate concentration 2%, heat treatment of enzyme no, reaction time 3 h): not detected
- Decomposition efficiency of genistin family in defatted soybean (substrate concentration 2%, heat treatment of enzyme no, reaction time 6 h): not detected
- Decomposition efficiency of genistin family in defatted soybean (substrate concentration 2%, heat treatment of enzyme yes, reaction time 6 h): 38.7
- Decomposition efficiency of genistin family in defatted soybean (substrate concentration 5%, heat treatment of enzyme no, reaction time 0 h): 40.0
- Decomposition efficiency of genistin family in defatted soybean (substrate concentration 5%, heat treatment of enzyme no, reaction time 1 h): not detected
- Decomposition efficiency of genistin family in defatted soybean (substrate concentration 5%, heat treatment of enzyme no, reaction time 3 h): not detected
- Decomposition efficiency of genistin family in defatted soybean (substrate concentration 5%, heat treatment of enzyme no, reaction time 6 h): not detected
- Decomposition efficiency of genistin family in defatted soybean (substrate concentration 5%, heat treatment of enzyme yes, reaction time 6 h): 41.8
- Decomposition efficiency of genistin family in defatted soybean (substrate concentration 10%, heat treatment of enzyme no, reaction time 0 h): 42.4
- Decomposition efficiency of genistin family in defatted soybean (substrate concentration 10%, heat treatment of enzyme no, reaction time 1 h): not detected
- Decomposition efficiency of genistin family in defatted soybean (substrate concentration 10%, heat treatment of enzyme no, reaction time 3 h): not detected
- Decomposition efficiency of genistin family in defatted soybean (substrate concentration 10%, heat treatment of enzyme no, reaction time 6 h): not detected
- Decomposition efficiency of genistin family in defatted soybean (substrate concentration 10%, heat treatment of enzyme yes, reaction time 6 h): 44.3
